Here are results for 20 compounds from ChEMBL document CHEMBL1157910, “Structural requirement(s) of N-phenylthioureas and benzaldehyde thiosemicarbazones as inhibitors of melanogenesis in melanoma B 16 cells” (Bioorg Med Chem Lett, 2010).

Where only a bound is given, the exact number is not on record here.

For experiment [1], the system named is B16. The experiment in a line: Inhibition of melanogenesis in mouse B16 cells at 10 uM. Type of experiment: functional.
For experiment [2], the system named is B16. Put plainly: Inhibition of melanogenesis in mouse B16 cells. Type of experiment: functional, cell-based.
Experiment [3] deals with B16. The experiment in a line: Selectivity ratio for inhibition of melanogenesis in mouse B16 cell of compound to N-phenylthiourea. Type of experiment: functional.

Consider `CCc1ccccc1NC(N)=S`, for which the inhibition at 10 µM in experiment [1] was under 10%. The compound further yielded an IC50 in experiment [2] of over 10 µM.

The compound `NC(=S)Nc1ccccc1CO` returned an inhibition at 10 µM in experiment [1] of under 10%. This compound had an IC50 in experiment [2] of over 10 µM.

In turn, `NC(=S)NCc1ccccc1` yielded an inhibition at 10 µM in experiment [1] of under 10%. The compound also gave an IC50 in experiment [2] of over 10 µM.

The compound `NC(=S)NCCc1ccccc1` showed an inhibition at 10 µM in experiment [1] of under 10%. In experiment [2], this compound gave a half-inhibitory concentration (IC50) of over 10 µM.

`NC(=S)NCCCc1ccccc1` gave an inhibition at 10 µM in experiment [1] of under 10%. Moreover, the half-inhibitory concentration (IC50) in experiment [2] was over 10 µM.

On to `NC(=S)NCCCCc1ccccc1`, for which, in experiment [1], the inhibition at 10 µM is under 10%. In addition, in experiment [2], the IC50 is over 10 µM.

For `Cc1ccc(NC(N)=S)cc1`, testing at 10 µM in experiment [1] gave an inhibition of 83%. Further, in experiment [2], the midpoint of inhibition, the IC50, lay at 5.5 µM.

In experiment [1], `CCc1ccc(NC(N)=S)cc1` registered an inhibition at 10 µM of 88%. This compound also came in with an IC50 in experiment [2] of 4.9 µM.

For the compound `CC(C)(C)c1ccc(NC(N)=S)cc1`, testing at 10 µM in experiment [1] gave an inhibition of 95%. This compound also yielded a half-maximal inhibitory concentration (IC50) in experiment [2] of 3.7 µM.

In experiment [1], `NC(=S)Nc1ccc(Cl)cc1` had an inhibition at 10 µM of 84%. Besides, the half-inhibitory concentration (IC50) in experiment [2] amounted to 4 µM.

In the case of `NC(=S)Nc1ccc(O)cc1`, in experiment [1], the inhibition at 10 µM came out at 70%. Further, half-maximal inhibition in experiment [2] (IC50) required 6.3 µM.

`Cc1cccc(NC(N)=S)c1`: the inhibition at 10 µM in experiment [1] was 78%. In experiment [2], this compound yielded a concentration for half-maximal inhibition (IC50) of 5 µM.

In experiment [1], `Cc1ccccc1NC(N)=S` showed an inhibition at 10 µM of under 10%. In addition, in experiment [2], the IC50 is over 10 µM.

Regarding `COc1ccc(NC(N)=S)cc1`, in experiment [1], the inhibition at 10 µM was determined as 80%. This compound also returned an IC50 in experiment [2] of 5.6 µM.

In turn, `CC(C)(C)c1ccccc1NC(N)=S` gave an inhibition at 10 µM in experiment [1] of under 10%. In experiment [2], the half-inhibitory concentration (IC50) was over 10 µM.

The compound `COc1ccccc1NC(N)=S` yielded an inhibition at 10 µM in experiment [1] of under 10%. Further, the IC50 in experiment [2] is over 10 µM.

With `Cc1ccc(/C=N/NC(N)=S)cc1`, the inhibition at 10 µM in experiment [1] turned out to be 64%. This compound yielded an IC50 in experiment [2] of 6.8 µM.

In experiment [1], `CCc1ccc(/C=N/NC(N)=S)cc1` registered an inhibition at 10 µM of 100%. This compound displayed an IC50 in experiment [2] of 3.4 µM. For the same compound, in experiment [3], the Ratio was 2.

Take `NC(=S)N/N=C/c1ccccc1` [PHENYLTHIOSEMICARBAZONE]: in experiment [1], the inhibition at 10 µM is under 10%. Besides, the half-inhibitory concentration (IC50) in experiment [2] was over 10 µM.

In turn, `NC(=S)Nc1ccccc1` [PHENYLTHIOUREA] returned an inhibition at 10 µM in experiment [1] of 84%. In experiment [2], this compound displayed a 50% inhibitory concentration (IC50) of 5.4 µM.
